The values that follow are results of earlier work, collected in PubChem BioAssay AID1259409 (Chemical Carcinogenesis Research Information System (CCRIS), 2018).

This series relates to rodent chemically induced tumor inhibition, incidence and multiplicity. Briefly: CCRIS tumor inhibitor studies. The conditions noted are these: Promoter: NONE USED.

On to `C=C(C)[C@H]1CC=C(C)CC1`, for which the “tumour outcome (control, treated, inhibition, significance)” value by setting is: (Carcinogen: 4-(METHYLNITROSAMINO)-1-(3-PYRIDYL)-1-BUTANONE, 64019-91-4, Dose [Inhibitor]: 0, 25 MG LIMONENE OIL 0.2 ML COTTONSEED OIL 1 HR PRIOR TO EACH CARCINOGEN DOSE (STUDY DURATION: 28 WK), Route [Inhibitor]: INTRAGASTRIC, Species: MOUSE, Strain/Sex: STRAIN-A/FEMALE, Target Tissue: Type of Lesion: FORESTOMACH: PAPILLOMA, Dose [Carcinogen]: 0.5 MG IN O.1 ML TRICAPRYLIN 2/WK FOR 8 WK) 17%, 0%, 100%,; (Carcinogen: 4-(METHYLNITROSAMINO)-1-(3-PYRIDYL)-1-BUTANONE, 64091-91-4, Dose [Inhibitor]: 0, 0.63% IN DIET FOR 17 WK BEGINNING 1 WK PRIOR TO CARCINOGEN DOSE (STUDY DURATION: 17 WK), Route [Inhibitor]: ORAL, Species: MOUSE, Strain/Sex: STRAIN-A/FEMALE, Target Tissue: Type of Lesion: LUNG: ADENOMA, Dose [Carcinogen]: 10 UMOL IN 0.1 ML SALINE ONCE) 100%, 96%, 4%, not significant; (Carcinogen: 4-(METHYLNITROSAMINO)-1-(3-PYRIDYL)-1-BUTANONE, 64091-91-4, Dose [Inhibitor]: 0, 25 MG IN 0.2 ML COTTONSEED OIL 1 HR PRIOR TO EACH CARCINOGEN DOSE (STUDY DURATION: 28 WK), Route [Inhibitor]: INTRAGASTRIC, Species: MOUSE, Strain/Sex: STRAIN-A/FEMALE, Target Tissue: Type of Lesion: FORESTOMACH: PAPILLOMA, Dose [Carcinogen]: 0.5 MG IN 0.1 ML TRICAPRYLIN 2/WK FOR 8 WK) 90%, 0%, 100%, p<0.001; (Carcinogen: 4-(METHYLNITROSAMINO)-1-(3-PYRIDYL)-1-BUTANONE, 64091-91-4, Dose [Inhibitor]: O, 25 MG LIMONENE FROM LEMON OIL IN 0.2 ML COTTONSEED OIL 1 HR PRIOR TO EACH CARCINOGEN DOSE (STUDY DURATION: 28 WK), Route [Inhibitor]: INTRAGASTRIC, Species: MOUSE, Strain/Sex: STRAIN-A/FEMALE, Target Tissue: Type of Lesion: FORESTOMACH: PAPILLOMA, Dose [Carcinogen]: 0.5 MG IN OIL ML TRICAPRYLIN 2/WK FOR 8 WK) 17%, 0%, 100%, not calculated; (Carcinogen: 7,12-DIMETHYLBENZ[A]ANTHRACENE, 57-97-6, Dose [Inhibitor]: 0, 1% IN DIET FOR 3 WK BEGINNING 2 WK PRIOR TO CARCINOGEN DOSE (STUDY DURATION: 20 WK), Route [Inhibitor]: ORAL, Species: RAT, Strain/Sex: WISTAR/FEMALE, Target Tissue: Type of Lesion: MAMMARY GLAND: CARCINOMA, Dose [Carcinogen]: 50 MG/KG IN SESAME OIL ONCE) 98%, 96%, 2%, not significant; (Carcinogen: 7,12-DIMETHYLBENZ[A]ANTHRACENE, 57-97-6, Dose [Inhibitor]: 0, 5% IN DIET BEGINNING POST CARCINOGEN TREATMENT AND CONTINUING FOR 25 WK (STUDY DURATION: 25 WK), Route [Inhibitor]: ORAL, Species: RAT, Strain/Sex: SPRAGUE-DAWLEY/FEMALE, Target Tissue: Type of Lesion: MAMMARY GLAND: TUMOR, Dose [Carcinogen]: 65 MG/KG IN SESAME OIL ONCE) 100%, 97%, 3%, not significant. Also, the “tumour outcome (control, treated, inhibition, significance)” value is recorded as 100%, 88%, 12%, not significant (Carcinogen: 7,12-DIMETHYLBENZ[A]ANTHRACENE, 57-97-6, Dose [Inhibitor]: 0, 5% IN DIET FOR 1 WK PRIOR TO AND 1 WK POST CARCINOGEN TREATMENT (STUDY DURATION: 25 WK), Route [Inhibitor]: ORAL, Species: RAT, Strain/Sex: SPRAGUE-DAWLEY/FEMALE, Target Tissue: Type of Lesion: MAMMARY GLAND: TUMOR, Dose [Carcinogen]: 65 MG/KG IN SESAME OIL ONCE); 91%, 75%, 18%, not significant (Carcinogen: 7,12-DIMETHYLBENZ[A]ANTHRACENE, 57-97-6, Dose [Inhibitor]: 0, 36 MMOL/KG IN DIET FOR 24 WK BEGINNING 2 WK PRIOR TO CARCINOGEN DOSE (STUDY DURATION: 24 WK), Route [Inhibitor]: ORAL, Species: RAT, Strain/Sex: SPRAGUE-DAWLEY/FEMALE, Target Tissue: Type of Lesion: MAMMARY GLAND: TUMOR, Dose [Carcinogen]: 65 MG/KG BW ONCE); 16/50 (32%), 13/50 (26%), 19%, not calculated (Carcinogen: BENZO[A]PYRENE, 50-32-8, Dose [Inhibitor]: 10 MG IN 0.1 ML ACETONE 3/WK ADMINISTERED SIMULTANEOUSLY WITH CARCINOGEN FOR DURATION OF STUDY (STUDY DURATION: 440 D), Route [Inhibitor]: DERMAL, Species: MOUSE, Strain/Sex: ICR/FEMALE, Target Tissue: Type of Lesion: SKIN: PAPILLOMA, Dose [Carcinogen]: 5 UG IN 0.1 ML ACETONE 3/WK FOR DURATION OF STUDY); 12/50 (24%), 4/50 (8%), 67%, not calculated (Carcinogen: BENZO[A]PYRENE, 50-32-8, Dose [Inhibitor]: 10 MG IN 0.1 ML ACETONE 3/WK ADMINISTERED SIMULTANEOUSLY WITH CARCINOGEN FOR DURATION OF STUDY (STUDY DURATION: 440 D), Route [Inhibitor]: DERMAL, Species: MOUSE, Strain/Sex: ICR/FEMALE, Target Tissue: Type of Lesion: SKIN: SQUAMOUS CARCINOMA, Dose [Carcinogen]: 5 UG IN 0.1 ML ACETONE 3/WK FOR DURATION OF STUDY); 4/19 (21%), 6/20 (30%), -43%, not significant (Carcinogen: DIETHYLNITROSAMINE, 55-18-5, N-METHYL-N-NITROSOUREA, 684-93-5, N-BUTYL-N-(4-HYDROXYBUTYL)NITROSAMINE, 3817-11-6, 1, Carcinogen: DIETHYLNITROSAMINE, 55-18-5, N-METHYL-N-NITROSOUREA, 684-93-5, N-BUTYL-N-(4-HYDROXYBUTYL)NITROSAMINE, 3817-11-6, 1, Dose [Inhibitor]: 0, 0.5% IN DIET FOR 24 WK BEGINNING POST CARCINOGEN TREATMENT (STUDY DURATION: 28 WK), Route [Inhibitor]: ORAL, Species: RAT, Strain/Sex: F344/MALE, Target Tissue: Type of Lesion: KIDNEY: ADENOMA, Dose [Carcinogen]: 100 MG/KG DEN IP ONCE, 20 MG/KG MNU IP 2/WK FOR FIRST 2 WK, 0.05% BBN IN DRINKING WATER DURING FIRST 2 WK, 40 MG/KG D, Dose [Carcinogen]: 100 MG/KG DEN IP ONCE, 20 MG/KG MNU IP 2/WK FOR FIRST 2 WK, 0.05% BBN IN DRINKING WATER DURING FIRST 2 WK, 40 MG/KG D); 4/19 (21%), 5/19 (26%), -24%, not significant (Carcinogen: DIETHYLNITROSAMINE, 55-18-5, N-METHYL-N-NITROSOUREA, 684-93-5, N-BUTYL-N-(4-HYDROXYBUTYL)NITROSAMINE, 3817-11-6, 1, Carcinogen: DIETHYLNITROSAMINE, 55-18-5, N-METHYL-N-NITROSOUREA, 684-93-5, N-BUTYL-N-(4-HYDROXYBUTYL)NITROSAMINE, 3817-11-6, 1, Dose [Inhibitor]: 0, 1% IN DIET FOR 24 WK BEGINNING POST CARCINOGEN TREATMENT (STUDY DURATION: 28 WK), Route [Inhibitor]: ORAL, Species: RAT, Strain/Sex: F344/MALE, Target Tissue: Type of Lesion: KIDNEY: ADENOMA, Dose [Carcinogen]: 100 MG/KG DEN IP ONCE, 20 MG/KG MNU IP 2/WK FOR FIRST 2 WK, 0.05% BBN IN DRINKING WATER DURING FIRST 2 WK, 40 MG/KG D, Dose [Carcinogen]: 100 MG/KG DEN IP ONCE, 20 MG/KG MNU IP 2/WK FOR FIRST 2 WK, 0.05% BBN IN DRINKING WATER DURING FIRST 2 WK, 40 MG/KG D). Moreover, the “tumour outcome (control, treated, inhibition, significance)” value is 4/19 (21%), 13/19 (68%), -224%, p<0.01 (Carcinogen: DIETHYLNITROSAMINE, 55-18-5, N-METHYL-N-NITROSOUREA, 684-93-5, N-BUTYL-N-(4-HYDROXYBUTYL)NITROSAMINE, 3817-11-6, 1, Carcinogen: DIETHYLNITROSAMINE, 55-18-5, N-METHYL-N-NITROSOUREA, 684-93-5, N-BUTYL-N-(4-HYDROXYBUTYL)NITROSAMINE, 3817-11-6, 1, Dose [Inhibitor]: 0, 2% IN DIET FOR 24 WK BEGINNING POST CARCINOGEN TREATMENT (STUDY DURATION: 28 WK), Route [Inhibitor]: ORAL, Species: RAT, Strain/Sex: F344/MALE, Target Tissue: Type of Lesion: KIDNEY: ADENOMA, Dose [Carcinogen]: 100 MG/KG DEN IP ONCE, 20 MG/KG MNU IP 2/WK FOR FIRST 2 WK, 0.05% BBN IN DRINKING WATER DURING FIRST 2 WK, 40 MG/KG D, Dose [Carcinogen]: 100 MG/KG DEN IP ONCE, 20 MG/KG MNU IP 2/WK FOR FIRST 2 WK, 0.05% BBN IN DRINKING WATER DURING FIRST 2 WK, 40 MG/KG D); 7/11 (64%), 8/12 (67%), -5%, not calculated (Carcinogen: METHYLCHOLANTHRENE, 56-49-5, Dose [Inhibitor]: 0, 0.5 ML 1/WK FOR 1 YR BEGINNING POST CARCINOGEN TREATMENT (STUDY DURATION: 24 MO), Route [Inhibitor]: GAVAGE, Species: MOUSE, Strain/Sex: SWISS/FEMALE, Target Tissue: Type of Lesion: LUNG: PAPILLARY ADENOMA AND ADENOCARCINOMA, Dose [Carcinogen]: 0.01 MG ON D 1, 7, 14 AND 21 AFTER BIRTH); 3/13 (23%), 2/14 (14%), 39%, not calculated (Carcinogen: METHYLCHOLANTHRENE, 56-49-5, Dose [Inhibitor]: 0, 0.5 ML 1/WK FOR 1 YR BEGINNING POST CARCINOGEN TREATMENT (STUDY DURATION: 24 MO), Route [Inhibitor]: GAVAGE, Species: MOUSE, Strain/Sex: SWISS/MALE, Target Tissue: Type of Lesion: LIVER: HEPATOCELLULAR ADENOMA AND CARCINOMA, Dose [Carcinogen]: 0.01 MG ON D 1, 7, 14 AND 21 AFTER BIRTH); 10/13 (77%), 7/14 (50%), 35%, not calculated (Carcinogen: METHYLCHOLANTHRENE, 56-49-5, Dose [Inhibitor]: 0, 0.5 ML 1/WK FOR 1 YR BEGINNING POST CARCINOGEN TREATMENT (STUDY DURATION: 24 MO), Route [Inhibitor]: GAVAGE, Species: MOUSE, Strain/Sex: SWISS/MALE, Target Tissue: Type of Lesion: LUNG: PAPILLARY ADENOMA AND ADENOCARCINOMA, Dose [Carcinogen]: 0.01 MG ON D 1, 7, 14 AND 21 AFTER BIRTH).
